Molecular target: Ras-related protein Rab-7a (Canis lupus familiaris, UniProt P18067)
Experiment: inhibition of fluorescent GTP loading on Rab7 – biochemical, dog Rab7, bead multiplex flow cytometry, Bodipy-FL-GTP, pyrazoline series, SAR follow-up (AID 2041)

Ras-related protein Rab-7a, sequence (P18067 whole entry): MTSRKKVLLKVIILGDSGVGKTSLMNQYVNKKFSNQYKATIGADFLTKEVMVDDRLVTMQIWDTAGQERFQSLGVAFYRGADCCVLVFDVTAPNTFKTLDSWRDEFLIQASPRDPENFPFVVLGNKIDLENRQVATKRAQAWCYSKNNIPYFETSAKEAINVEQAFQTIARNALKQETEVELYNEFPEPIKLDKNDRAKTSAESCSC

SMILES	EC50	EC50 (inactive by the depositor's call)
CN(C)c1ccc(C2CC(c3ccc(Br)cc3)=NN2c2ccccc2)cc1 (stereo not given) [UNM-0000305846]	> 30 µM	
CN(C)c1ccc(C2CC(c3ccc(Cl)cc3)=NN2c2ccccc2)cc1 (stereo not given) [UNM-0000305847]	> 30 µM	
COc1ccc(C2=NN(c3ccccc3)C(c3ccc(OC)c(OC)c3C(=O)O)C2)cc1 (stereo not given) [UNM-0000305848]	> 30 µM	
Cc1ccccc1[N+]1=N[C-](c2ccccc2)CC1c1cccc([N+](=O)[O-])c1 (stereo not given) [UNM-0000305854]	> 30 µM	
COc1ccccc1N1N=C(c2ccccc2)CC1c1ccccc1 (stereo not given) [UNM-0000305855]	10.2 µM	
O=[N+]([O-])c1cccc(C2C[C-](c3ccccc3)N=[N+]2c2ccccc2)c1 (stereo not given) [UNM-0000305857]	> 30 µM	
COc1ccc(C2CC(c3ccc(Cl)cc3)=NN2c2ccccc2)cc1OC (stereo not given) [UNM-0000305858]	> 30 µM	
FC(F)(F)c1cccc(N2N=C(c3ccc(Cl)cc3)CC2c2ccccc2Cl)c1 (stereo not given) [UNM-0000305859]	> 30 µM	
COc1ccc(C2=NN(c3ccccc3F)C(c3ccc(F)cc3)C2)cc1 (stereo not given) [UNM-0000305860]	> 30 µM	
COc1ccc(C2=NN(c3ccc(Cl)cc3)C(c3ccccc3F)C2)cc1 (stereo not given) [UNM-0000305863]	> 30 µM	
COc1ccc(C2CC(c3ccc(F)cc3)=NN2c2ccccc2)cc1OC (stereo not given) [UNM-0000305864]	> 30 µM	
CN(C)c1ccc(C2CC(c3ccc(F)cc3)=NN2c2ccccc2)cc1 (stereo not given) [UNM-0000305866]	> 30 µM	
COc1ccc(C2CC(c3ccccc3)=NN2c2ccc(C(N)=O)cc2)cc1 (stereo not given) [UNM-0000305870]	> 30 µM	
COc1ccc(C2CC(c3ccccc3)=NN2c2ccc(C(=O)O)cc2)cc1 (stereo not given) [UNM-0000306085]	> 30 µM	
COc1ccc(C2CC(c3ccccc3F)=NN2c2ccc(S(N)(=O)=O)cc2)cc1 (stereo not given) [UNM-0000306110]	> 30 µM	
COc1ccc(C2CC(c3ccccc3Br)=NN2c2ccc(S(N)(=O)=O)cc2)cc1 (stereo not given) [UNM-0000306112]	> 30 µM	
COc1ccc(C2CC(c3cccc(Br)c3)=NN2c2ccc(S(N)(=O)=O)cc2)cc1 (stereo not given) [UNM-0000306113]	> 30 µM	
COc1ccc(C2CC(c3cccc(Cl)c3)=NN2c2ccc(S(N)(=O)=O)cc2)cc1 (stereo not given) [UNM-0000306134]		0.141 µM
COc1ccc(C2CC(c3ccc(Br)cc3)=NN2c2ccc(S(N)(=O)=O)cc2)cc1 (stereo not given) [UNM-0000306138]	> 30 µM	
NS(=O)(=O)c1ccc(N2N=C(c3ccccc3)CC2c2cccc(Br)c2)cc1 (stereo not given) [UNM-0000306147]	> 30 µM	
Cc1ccccc1C1CC(c2ccccc2)=NN1c1ccc(S(N)(=O)=O)cc1 (stereo not given) [UNM-0000306148]	> 30 µM	
COc1ccc(C2CC(c3ccccc3C)=NN2c2ccc(S(N)(=O)=O)cc2)cc1 (stereo not given) [UNM-0000306152]	> 30 µM	
COc1ccc(C2CC(c3cccc(C)c3)=NN2c2ccc(S(N)(=O)=O)cc2)cc1 (stereo not given) [UNM-0000306153]	> 30 µM	
NS(=O)(=O)c1ccc(N2N=C(c3ccccc3)CC2c2ccc(Br)cc2)cc1 (stereo not given) [UNM-0000306160]	> 30 µM	
NS(=O)(=O)c1ccc(N2N=C(c3ccccc3)CC2c2cccc(Cl)c2)cc1 (stereo not given) [UNM-0000306161]	> 30 µM	
